Reference: patent US20120295907A1, “INSECTICIDAL COMPOUNDS” (SYNGENTA CROP PROTECTION, LLC, priority 2009, published 2012)
Like-named read-outs stand apart in the source and are kept apart here.

Columns and labels:
Type in all cases: in vivo
Heliothis virescens = Heliothis virescens (Tobacco Budworm) egg test on artificial diet; details: 96 h, 200 ppm (concentration in well 18 ppm), eggs 0-24 h old on artificial diet, 4 days, egg mortality, larval mortality, growth regulation
Tetranychus urticae = Tetranychus urticae (Two-Spotted Spider Mite) bean leaf disc spray test; details: foliar, 192 h, read-out: control of Tetranychus urticae
Spodoptera littoralis = Spodoptera littoralis (Egyptian Cotton Leafworm) cotton leaf disc spray test; details: foliar, 72 h, 200 ppm spray on cotton leaf discs, L1 larvae, mortality, feeding behavior, growth regulation 3 DAT
Plutella xylostella = Plutella xylostella (Diamond Back Moth) artificial diet MTP test; details: 144 h, 200 ppm (concentration in well 18 ppm), L2 larvae, 6 days, larval mortality, growth regulation
Diabrotica balteata = Diabrotica balteata (Corn Root Worm) artificial diet MTP test; details: 120 h, 200 ppm (concentration in well 18 ppm), L2 larvae, 5 days, larval mortality, growth regulation
Thrips tabaci = Thrips tabaci (Onion Thrips) sunflower leaf disc spray test; details: foliar, 168 h, 200 ppm spray on sunflower leaf discs, population of mixed ages, 7 days, mortality
[1] = 200 ppm spray on bean leaf discs, mite populations of mixed ages, 8 days, egg, larval and adult mortality

Measured: pest or weed control at 200 ppm

COc1c(NC(=O)c2ccc([N+](=O)[O-])cc2Cl)cccc1C(=O)Nc1c(Cl)cc(C(F)(C(F)(F)F)C(F)(F)C(F)(F)F)cc1Br (centres unmarked) [B11]
≥ 80%: Heliothis virescens | Tetranychus urticae; [1] | Spodoptera littoralis | Plutella xylostella

COc1c(NC(=O)c2ccc(OC(F)(F)F)cc2)cccc1C(=O)Nc1c(Cl)cc(C(F)(C(F)(F)F)C(F)(F)C(F)(F)F)cc1Br (centres unmarked) [B13]
≥ 80%: Heliothis virescens | Tetranychus urticae; [1] | Spodoptera littoralis | Plutella xylostella

COc1c(NC(=O)c2ccc(F)cc2F)cccc1C(=O)Nc1c(Cl)cc(C(F)(C(F)(F)F)C(F)(F)C(F)(F)F)cc1Br (centres unmarked) [B23]
≥ 80%: Heliothis virescens | Tetranychus urticae; [1] | Spodoptera littoralis | Plutella xylostella

COc1c(NC(=O)c2ccc([N+](=O)[O-])o2)cccc1C(=O)Nc1c(Cl)cc(C(F)(C(F)(F)F)C(F)(F)C(F)(F)F)cc1Br (centres unmarked) [B61]
≥ 80%: Heliothis virescens | Diabrotica balteata | Tetranychus urticae; [1] | Spodoptera littoralis | Plutella xylostella

COc1c(NC(=O)c2cccc([N+](=O)[O-])c2C)cccc1C(=O)Nc1c(Cl)cc(C(F)(C(F)(F)F)C(F)(F)C(F)(F)F)cc1Br (centres unmarked) [B69]
≥ 80%: Heliothis virescens | Diabrotica balteata | Tetranychus urticae; [1] | Spodoptera littoralis | Plutella xylostella

COc1c(NC(=O)c2sc(C)nc2C)cccc1C(=O)Nc1c(Cl)cc(C(F)(C(F)(F)F)C(F)(F)C(F)(F)F)cc1Br (centres unmarked) [B96]
≥ 80%: Heliothis virescens | Diabrotica balteata | Tetranychus urticae; [1] | Spodoptera littoralis | Plutella xylostella

COc1c(NC(=O)c2sc(C(F)(F)F)nc2C)cccc1C(=O)Nc1c(Cl)cc(C(F)(C(F)(F)F)C(F)(F)C(F)(F)F)cc1Br (centres unmarked) [B104]
≥ 80%: Heliothis virescens | Tetranychus urticae; [1] | Spodoptera littoralis | Plutella xylostella

COc1c(NC(=O)c2ccc(Br)cc2C)cccc1C(=O)Nc1c(Cl)cc(C(F)(C(F)(F)F)C(F)(F)C(F)(F)F)cc1Br (centres unmarked) [B138]
≥ 80%: Heliothis virescens | Tetranychus urticae; [1] | Spodoptera littoralis | Plutella xylostella

COc1c(NC(=O)c2ccc(Br)c(OC)c2C)cccc1C(=O)Nc1c(Cl)cc(C(F)(C(F)(F)F)C(F)(F)C(F)(F)F)cc1Br (centres unmarked) [B139]
≥ 80%: Heliothis virescens | Tetranychus urticae; [1] | Spodoptera littoralis | Plutella xylostella

COc1c(NC(=O)c2c(Cl)cccc2Cl)cccc1C(=O)Nc1c(Cl)cc(C(F)(C(F)(F)F)C(F)(F)C(F)(F)F)cc1Br (centres unmarked) [B158]
≥ 80%: Heliothis virescens | Diabrotica balteata | Tetranychus urticae; [1] | Spodoptera littoralis | Plutella xylostella

COc1c(NC(=O)c2c(C)cc(Br)cc2Cl)cccc1C(=O)Nc1c(Cl)cc(C(F)(C(F)(F)F)C(F)(F)C(F)(F)F)cc1Br (centres unmarked) [B159]
≥ 80%: Heliothis virescens | Diabrotica balteata | Tetranychus urticae; [1] | Spodoptera littoralis | Plutella xylostella

COc1c(NC(=O)c2ccc([N+](=O)[O-])c(Cl)c2)cccc1C(=O)Nc1c(Cl)cc(C(F)(C(F)(F)F)C(F)(F)C(F)(F)F)cc1Br (centres unmarked) [B170]
≥ 80%: Heliothis virescens | Diabrotica balteata | Tetranychus urticae; [1] | Spodoptera littoralis | Plutella xylostella

COc1c(NC(=O)c2ccc([N+](=O)[O-])c(C(F)(F)F)c2)cccc1C(=O)Nc1c(Cl)cc(C(F)(C(F)(F)F)C(F)(F)C(F)(F)F)cc1Br (centres unmarked) [B179]
≥ 80%: Heliothis virescens | Diabrotica balteata | Tetranychus urticae; [1] | Spodoptera littoralis | Plutella xylostella

COc1c(NC(=O)c2cccc([N+](=O)[O-])c2)cccc1C(=O)Nc1c(Cl)cc(C(F)(C(F)(F)F)C(F)(F)C(F)(F)F)cc1Br (centres unmarked) [B193]
≥ 80%: Heliothis virescens | Tetranychus urticae; [1] | Spodoptera littoralis | Plutella xylostella

COc1c(NC(=O)c2cccnc2F)cccc1C(=O)Nc1c(Cl)cc(C(F)(C(F)(F)F)C(F)(F)C(F)(F)F)cc1Br (centres unmarked) [B194]
≥ 80%: Heliothis virescens | Diabrotica balteata | Tetranychus urticae; [1] | Spodoptera littoralis | Plutella xylostella

COc1c(NC(=O)c2ccc([N+](=O)[O-])c([N+](=O)[O-])c2)cccc1C(=O)Nc1c(Cl)cc(C(F)(C(F)(F)F)C(F)(F)C(F)(F)F)cc1Br (centres unmarked) [B195]
≥ 80%: Heliothis virescens | Tetranychus urticae | Spodoptera littoralis | Plutella xylostella

COc1c(NC(=O)c2ccc([N+](=O)[O-])cc2C)cccc1C(=O)Nc1c(Cl)cc(C(F)(C(F)(F)F)C(F)(F)C(F)(F)F)cc1Br (centres unmarked) [B196]
≥ 80%: Tetranychus urticae; [1] | Spodoptera littoralis | Plutella xylostella

COc1c(NC(=O)c2ccc(C#N)cc2Cl)cccc1C(=O)Nc1c(Cl)cc(C(F)(C(F)(F)F)C(F)(F)C(F)(F)F)cc1Br (centres unmarked) [B198]
≥ 80%: Heliothis virescens | Tetranychus urticae; [1] | Spodoptera littoralis | Plutella xylostella

COc1c(NC(=O)c2ccccc2C(F)(F)F)cccc1C(=O)Nc1c(Cl)cc(C(F)(C(F)(F)F)C(F)(F)F)cc1Cl [E18]
≥ 80%: Thrips tabaci | Heliothis virescens | Diabrotica balteata | Spodoptera littoralis | Plutella xylostella

COc1c(NC(=O)c2ccc(F)cc2F)cccc1C(=O)Nc1c(Cl)cc(C(F)(C(F)(F)F)C(F)(F)F)cc1Cl [E22]
≥ 80%: Thrips tabaci | Heliothis virescens | Diabrotica balteata | Spodoptera littoralis | Plutella xylostella

COc1c(NC(=O)c2ccccc2Cl)cccc1C(=O)Nc1c(C)cc(C(F)(C(F)(F)F)C(F)(F)C(F)(F)F)cc1C (centres unmarked) [F3]
≥ 80%: Thrips tabaci | Heliothis virescens | Diabrotica balteata | Spodoptera littoralis | Plutella xylostella

COc1c(NC(=O)c2ccc(OC(F)(F)F)cc2)cccc1C(=O)Nc1c(C)cc(C(F)(C(F)(F)F)C(F)(F)C(F)(F)F)cc1C (centres unmarked) [F5]
≥ 80%: Heliothis virescens | Tetranychus urticae; [1] | Spodoptera littoralis | Plutella xylostella

COc1c(NC(=O)c2cccc(F)c2F)cccc1C(=O)Nc1c(C)cc(C(F)(C(F)(F)F)C(F)(F)C(F)(F)F)cc1C (centres unmarked) [F8]
≥ 80%: Thrips tabaci | Heliothis virescens | Diabrotica balteata | Spodoptera littoralis | Plutella xylostella

COc1c(NC(=O)c2cccc(F)c2)cccc1C(=O)Nc1c(C)cc(C(F)(C(F)(F)F)C(F)(F)C(F)(F)F)cc1C (centres unmarked) [F20]
≥ 80%: Thrips tabaci | Heliothis virescens | Diabrotica balteata | Spodoptera littoralis | Plutella xylostella

COc1c(NC(=O)c2ccc([N+](=O)[O-])cc2Cl)cccc1C(=O)Nc1c(C)cc(C(F)(C(F)(F)F)C(F)(F)C(F)(F)F)cc1C (centres unmarked) [F28]
≥ 80%: Heliothis virescens | Diabrotica balteata | Tetranychus urticae; [1] | Spodoptera littoralis

CCc1cc(C(F)(C(F)(F)F)C(F)(F)F)cc(C)c1NC(=O)c1cccc(NC(=O)c2c(F)cc(C#N)cc2F)c1OC [J2]
≥ 80%: Heliothis virescens | Diabrotica balteata | Tetranychus urticae; [1] | Plutella xylostella
